Reference: ChEMBL document CHEMBL4028827, “Discovery of indazole aldosterone synthase (CYP11B2) inhibitors as potential treatments for hypertension” (Bioorg Med Chem Lett, 2017)

Columns and labels:
[1] = Selectivity ratio of IC50 for human CYP11B1-8C7 expressed in Chinese hamster V79 cells to IC50 for human CYP11B2-CLE9 expressed in Chinese hamster V79 cells
[2] = target: T1, Cytochrome P450 11B2, mitochondrial (Rattus norvegicus, UniProt P30099); test: Inhibition of rat CYP11B2-1F4 expressed in Chinese hamster V79 cells using 11-deoxycorticosterone as substrate preincubated for 1 hr followed by substrate addition measured for 3 hrs by HTRF assay; format: cell-based
T1 sequence (P30099 whole entry): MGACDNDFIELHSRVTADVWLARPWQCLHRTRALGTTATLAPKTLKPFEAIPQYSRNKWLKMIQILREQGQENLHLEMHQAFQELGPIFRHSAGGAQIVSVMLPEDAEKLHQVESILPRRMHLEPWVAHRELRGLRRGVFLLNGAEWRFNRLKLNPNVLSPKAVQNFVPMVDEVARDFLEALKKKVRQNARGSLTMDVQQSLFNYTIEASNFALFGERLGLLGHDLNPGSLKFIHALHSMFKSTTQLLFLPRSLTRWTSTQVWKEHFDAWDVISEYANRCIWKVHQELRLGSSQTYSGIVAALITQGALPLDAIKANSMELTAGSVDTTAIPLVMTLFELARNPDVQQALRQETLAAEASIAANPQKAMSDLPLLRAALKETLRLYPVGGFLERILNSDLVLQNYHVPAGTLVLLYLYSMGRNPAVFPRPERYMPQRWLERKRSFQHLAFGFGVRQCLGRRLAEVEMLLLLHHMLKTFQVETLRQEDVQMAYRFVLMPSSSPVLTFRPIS

[3] = target: T2, Steroid 17-alpha-hydroxylase/17,20 lyase (Homo sapiens, UniProt P05093); test: Inhibition of human CYP17 expressed in African green monkey COS7 cells using 17-hydroxypregnenolone as substrate preincubated for 1 hr followed by substrate addition measured after 3 hrs by EIA; format: cell-based
T2 sequence (P05093 whole entry): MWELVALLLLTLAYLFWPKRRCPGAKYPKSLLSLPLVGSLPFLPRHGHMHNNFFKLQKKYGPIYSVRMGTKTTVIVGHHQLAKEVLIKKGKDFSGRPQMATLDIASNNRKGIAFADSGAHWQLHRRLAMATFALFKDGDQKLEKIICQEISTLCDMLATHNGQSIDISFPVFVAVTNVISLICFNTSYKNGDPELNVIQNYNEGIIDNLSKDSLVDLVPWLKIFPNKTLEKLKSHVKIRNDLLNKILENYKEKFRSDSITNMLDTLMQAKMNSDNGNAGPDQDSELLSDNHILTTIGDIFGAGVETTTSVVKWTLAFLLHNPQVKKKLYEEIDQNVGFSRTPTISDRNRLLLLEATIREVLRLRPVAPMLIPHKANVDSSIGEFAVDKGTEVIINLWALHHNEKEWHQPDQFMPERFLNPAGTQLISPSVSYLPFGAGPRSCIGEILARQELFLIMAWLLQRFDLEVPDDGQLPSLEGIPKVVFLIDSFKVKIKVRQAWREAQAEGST

Cytochrome P450 2C9 = Cytochrome P450 2C9 (Homo sapiens, UniProt P11712); test: Inhibition of hepatic CYP2C9 (unknown origin); format: ADME
Chain of Cytochrome P450 2C9 (P11712 whole entry): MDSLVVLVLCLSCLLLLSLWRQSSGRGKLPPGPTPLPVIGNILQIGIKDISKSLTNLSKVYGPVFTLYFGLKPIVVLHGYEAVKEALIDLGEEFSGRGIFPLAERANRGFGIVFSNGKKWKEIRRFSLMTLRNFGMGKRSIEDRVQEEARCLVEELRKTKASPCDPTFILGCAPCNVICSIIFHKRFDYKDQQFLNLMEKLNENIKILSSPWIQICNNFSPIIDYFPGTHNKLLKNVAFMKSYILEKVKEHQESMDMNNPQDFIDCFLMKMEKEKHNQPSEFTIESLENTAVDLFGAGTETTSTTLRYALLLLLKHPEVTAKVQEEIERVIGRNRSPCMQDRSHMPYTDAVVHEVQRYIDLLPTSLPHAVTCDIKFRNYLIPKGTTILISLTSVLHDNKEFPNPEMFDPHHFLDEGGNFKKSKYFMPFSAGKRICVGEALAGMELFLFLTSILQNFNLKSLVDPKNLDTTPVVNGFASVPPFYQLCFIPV

[4] = Intrinsic clearance in rat liver microsomes at […] preincubated for 10 mins followed by NADPH addition measured after 45 mins by LC-MS analysis; format: ADME, microsome; conditions: read-out: CLH
[5] = Volume of distribution in Sprague-Dawley rat at 1 mg/kg, iv or 2 mg/kg, po administered via gavage by LC-MS/MS analysis; format: ADME, organism-based; conditions: in vivo
[6] = Oral bioavailability in Sprague-Dawley rat at 2 mg/kg administered via gavage by LC-MS/MS analysis; format: ADME, organism-based; conditions: in vivo
[7] = Plasma clearance in Sprague-Dawley rat at 1 mg/kg, iv or 2 mg/kg, po administered via gavage by LC-MS/MS analysis; format: ADME, organism-based
[8] = Half life in Sprague-Dawley rat at 1 mg/kg, iv or 2 mg/kg, po administered via gavage by LC-MS/MS analysis; format: ADME, organism-based; conditions: in vivo
[9] = Selectivity ratio of IC50 for hepatic CYP2C9 (unknown origin) to IC50 for human CYP11B2-CLE9 expressed in Chinese hamster V79 cells

SMILES: CC(C)(O)c1cncc(-n2ncc3c(C(F)(F)F)cccc32)c1
- Ratio IC50 [1]: 44
- IC50 [2]: 0.0022 µM
- IC50 [3]: > 10 µM
- IC50 (Cytochrome P450 2C9): 9.1 µM
- CLint scaled [4]: < 20 mL/min/kg
- Vd [5]: 6.3 L/kg
- bioavailability [6]: 28%
- clearance [7]: 14 mL/min/kg
- half-life [8]: 7.6 h
- Ratio IC50 [9]: >4000
